Laboratory results published in ChEMBL document CHEMBL3596161, “Progress Toward the Development of Noscapine and Derivatives as Anticancer Agents” (J Med Chem, 2015).

Tests used:
[1] = system: MCF7; assay: Cytotoxicity against human MCF7 cells; assay type: functional, cell-based
[2] = system: CCRF-CEM; assay: Cytotoxicity against human CEM cells; assay type: functional, cell-based
[3] = system: A549; assay: Cytotoxicity against human A549 cells; assay type: functional, cell-based
[4] = system: HeLa; assay: Cytotoxicity against human HeLa cells; assay type: functional, cell-based
[5] = target: Tubulin; assay: Binding affinity to tubulin (unknown origin) by fluorescence assay; assay type: protein-complex assay, Homo sapiens
[6] = Cytotoxicity against human NCI-ADR-RES cells expressing ABCB1
[7] = Cytotoxicity against human NCI/ADR cells; settings: NCI/ADR-RES
[8] = target: Tubulin (Homo sapiens) (UniProt P68371+Q9H4B7+P0DPH7+P68366+Q13509+Q71U36+P04350+Q3ZCM7+P07437+P68363+Q9BQE3+Q6PEY2+Q13885+Q9BVA1+Q9BUF5); assay: Inhibition of MAPs-rich tubulin (unknown origin) polymerization at 50 uM; assay type: protein-complex assay
[9] = Cytotoxicity against human MCF-7 FLV1000 cells expressing […]; assay type: functional, cell-based

## COc1ccc2c(c1OC)C(=O)O[C@@H]2[C@H]1c2c(cc3c(c2OC)OCO3)CCN1CC(C)=O
[1]
  IC50: 25.3 µM
[2]
  IC50: 6.9 µM
[3]
  IC50: 28 µM
[4]
  IC50: 15.8 µM

## COc1ccc2c(c1OC)C(=O)O[C@@H]2[C@H]1c2c(cc3c(c2OC)OCO3)CCN1Cc1cccc(Cl)c1
[1]
  IC50: 45.8 µM
[2]
  IC50: 11.9 µM
[3]
  IC50: 61.3 µM
[4]
  IC50: 28.3 µM

## COc1ccc2c(c1OC)C(=O)O[C@@H]2[C@H]1c2c(c([N+](=O)[O-])c3c(c2OC)OCO3)CCN1C
[5]
  Kd: 86 µM

## COc1ccc2c(c1OC)C(=O)O[C@@H]2[C@H]1c2c(cc3c(c2OC)OCO3)CCN1Cc1ccc(Br)cc1
[1]
  IC50: 34.1 µM
[2]
  IC50: 9 µM
[3]
  IC50: 42.4 µM
[4]
  IC50: 21.2 µM

## COc1ccc2c(c1OC)C(=O)O[C@@H]2[C@H]1c2c(c(N)c3c(c2OC)OCO3)CCN1C
[5]
  Kd: 14 µM

## COc1ccc2c(c1OC)C(=O)O[C@@H]2[C@H]1c2c(cc3c(c2OC)OCO3)CCN1Cc1ccccc1
[1]
  IC50: 31.2 µM
[2]
  IC50: 8.3 µM
[3]
  IC50: 37.7 µM
[4]
  IC50: 19.4 µM

## COc1cc2c(c(OC)c1OC)-c1ccc(OC)c(=O)cc1[C@@H](NC(C)=O)CC2 [COLCHICINE]
[6]
  IC50: 96 nM
[7]
  IC50: 0.36 nM

## CCOC(=O)CN1CCc2cc3c(c(OC)c2[C@@H]1[C@H]1OC(=O)c2c1ccc(OC)c2OC)OCO3
[1]
  IC50: 52.6 µM
[2]
  IC50: 13.6 µM
[3]
  IC50: 72.3 µM
[4]
  IC50: 32.4 µM

## COc1ccc2c(c1OCCCCS(=O)(=O)O)C(=O)O[C@@H]2[C@H]1c2c(c(Br)c3c(c2OC)OCO3)CCN1C
[8]
  inhibition: 68%

## COc1ccc(CN2CCc3cc4c(c(OC)c3[C@@H]2[C@H]2OC(=O)c3c2ccc(OC)c3OC)OCO4)cc1
[1]
  IC50: 28.7 µM
[2]
  IC50: 7.7 µM
[3]
  IC50: 33.5 µM
[4]
  IC50: 17.9 µM

## O=C1c2c(O)ccc(O)c2C(=O)c2c(NCCNCCO)ccc(NCCNCCO)c21 [MITOXANTRONE]
[1]
  IC50: 0.026 µM
[9]
  IC50: 435 nM
